Measured values from the NIST ThermoML archive (doi:10.1016/j.jct.2011.08.016).

Assay: xn = mol fraction of the nth substance listed
Conditions: Liquid, Vibrating tube method

CCCCCCCCCC [decane] + CCCCCCC
Conditions | mass density [kg/m3]
333.12 K, 4000 kPa, x2 = 0.0531 | 701.18
333.12 K, 4000 kPa, x2 = 0.777 | 668.42
333.12 K, 5000 kPa, x2 = 0.0531 | 702.16
333.12 K, 5000 kPa, x2 = 0.777 | 669.49
333.12 K, 6000 kPa, x2 = 0.0531 | 703.1
333.12 K, 6000 kPa, x2 = 0.777 | 670.55
333.12 K, 7000 kPa, x2 = 0.0531 | 704.05
333.12 K, 7000 kPa, x2 = 0.777 | 671.62
333.12 K, 8000 kPa, x2 = 0.0531 | 704.99
333.12 K, 8000 kPa, x2 = 0.777 | 672.68
333.12 K, 9000 kPa, x2 = 0.0531 | 705.9
333.12 K, 9000 kPa, x2 = 0.777 | 673.73
333.12 K, 10000 kPa, x2 = 0.0531 | 706.8
333.12 K, 10000 kPa, x2 = 0.777 | 674.77
333.12 K, 10990 kPa, x2 = 0.0531 | 707.69
333.12 K, 10990 kPa, x2 = 0.777 | 675.8
333.12 K, 12000 kPa, x2 = 0.0531 | 708.56
333.12 K, 12000 kPa, x2 = 0.777 | 676.81
333.12 K, 13000 kPa, x2 = 0.0531 | 709.43
333.12 K, 13000 kPa, x2 = 0.777 | 677.81
333.12 K, 14000 kPa, x2 = 0.0531 | 710.28
333.12 K, 14000 kPa, x2 = 0.777 | 678.79
333.12 K, 15000 kPa, x2 = 0.0531 | 711.14
333.12 K, 15000 kPa, x2 = 0.777 | 679.76
333.12 K, 16000 kPa, x2 = 0.0531 | 711.96
333.12 K, 16000 kPa, x2 = 0.777 | 680.71
333.12 K, 17000 kPa, x2 = 0.0531 | 712.79
333.12 K, 17000 kPa, x2 = 0.777 | 681.65
333.12 K, 18000 kPa, x2 = 0.0531 | 713.6
333.12 K, 18000 kPa, x2 = 0.777 | 682.58
333.12 K, 19000 kPa, x2 = 0.0531 | 714.39
333.12 K, 19000 kPa, x2 = 0.777 | 683.49
333.12 K, 20000 kPa, x2 = 0.0531 | 715.18
333.12 K, 20000 kPa, x2 = 0.777 | 684.39
333.12 K, 21000 kPa, x2 = 0.0531 | 715.96
333.12 K, 21000 kPa, x2 = 0.777 | 685.27
333.12 K, 22000 kPa, x2 = 0.0531 | 716.72
333.12 K, 22000 kPa, x2 = 0.777 | 686.1
333.12 K, 23000 kPa, x2 = 0.0531 | 717.46
333.12 K, 23000 kPa, x2 = 0.777 | 686.9
333.12 K, 24000 kPa, x2 = 0.0531 | 718.21
333.12 K, 24000 kPa, x2 = 0.777 | 687.68
333.12 K, 25000 kPa, x2 = 0.0531 | 718.95
333.12 K, 25000 kPa, x2 = 0.777 | 688.47
333.13 K, 1000 kPa, x2 = 0.952 | 653.95
333.13 K, 2000 kPa, x2 = 0.952 | 655.14
333.13 K, 3000 kPa, x2 = 0.952 | 656.33
333.13 K, 4000 kPa, x2 = 0.952 | 657.51
333.13 K, 5000 kPa, x2 = 0.952 | 658.67
333.13 K, 6000 kPa, x2 = 0.952 | 659.82
333.13 K, 7000 kPa, x2 = 0.952 | 660.95
333.13 K, 8000 kPa, x2 = 0.952 | 662.06
333.13 K, 9000 kPa, x2 = 0.952 | 663.16
333.13 K, 10000 kPa, x2 = 0.952 | 664.24
333.13 K, 10990 kPa, x2 = 0.952 | 665.3
333.13 K, 12000 kPa, x2 = 0.952 | 666.34
333.13 K, 13000 kPa, x2 = 0.952 | 667.37
333.13 K, 14000 kPa, x2 = 0.952 | 668.38
333.13 K, 15000 kPa, x2 = 0.952 | 669.39
333.13 K, 16000 kPa, x2 = 0.952 | 670.37
333.13 K, 17000 kPa, x2 = 0.952 | 671.33
333.13 K, 18000 kPa, x2 = 0.952 | 672.29
333.13 K, 19000 kPa, x2 = 0.952 | 673.23
333.13 K, 20000 kPa, x2 = 0.952 | 674.14
333.13 K, 21000 kPa, x2 = 0.952 | 675.04
333.13 K, 22000 kPa, x2 = 0.952 | 675.93
333.13 K, 23000 kPa, x2 = 0.952 | 676.79
333.13 K, 24000 kPa, x2 = 0.952 | 677.64
333.13 K, 25000 kPa, x2 = 0.952 | 678.45
333.14 K, 1000 kPa, x2 = 0.2594 | 690.74
333.14 K, 2000 kPa, x2 = 0.2594 | 691.66
333.14 K, 3000 kPa, x2 = 0.2594 | 692.62
333.14 K, 4000 kPa, x2 = 0.2594 | 693.57
333.14 K, 5000 kPa, x2 = 0.2594 | 694.49
333.14 K, 6000 kPa, x2 = 0.2594 | 695.43
333.14 K, 7000 kPa, x2 = 0.2594 | 696.4
333.14 K, 8000 kPa, x2 = 0.2594 | 697.34
333.14 K, 9000 kPa, x2 = 0.2594 | 698.3
333.14 K, 10000 kPa, x2 = 0.2594 | 699.23
333.14 K, 10990 kPa, x2 = 0.2594 | 700.16
333.14 K, 12000 kPa, x2 = 0.2594 | 701.08
333.14 K, 13000 kPa, x2 = 0.2594 | 701.98
333.14 K, 14000 kPa, x2 = 0.2594 | 702.87
333.14 K, 15000 kPa, x2 = 0.2594 | 703.75
333.14 K, 16000 kPa, x2 = 0.2594 | 704.61
333.14 K, 17000 kPa, x2 = 0.2594 | 705.47
333.14 K, 18000 kPa, x2 = 0.2594 | 706.33
333.14 K, 19000 kPa, x2 = 0.2594 | 707.13
333.14 K, 20000 kPa, x2 = 0.2594 | 707.94
333.14 K, 21000 kPa, x2 = 0.2594 | 708.75
333.14 K, 22000 kPa, x2 = 0.2594 | 709.53
333.14 K, 23000 kPa, x2 = 0.2594 | 710.3
333.14 K, 24000 kPa, x2 = 0.2594 | 711.03
333.14 K, 25000 kPa, x2 = 0.2594 | 711.74
